Experimental data taken from ChEMBL document CHEMBL1155962, “Dihydropyrazolopyrimidines containing benzimidazoles as K(V)1.5 potassium channel antagonists” (Bioorg Med Chem Lett, 2009).
Values belong to the molecule of their own block, whether it stands above or below them. Active and inactive are the calls of the source. No cut-off for these calls is given here.

Assays:
[1] = target: T1, Potassium voltage-gated channel subfamily A member 5 (Homo sapiens, UniProt P22460); assay: Inhibition of human Kv1.5 channel expressed in mouse L929 cells; assay type: cell-based
[2] = target: T1, Potassium voltage-gated channel subfamily A member 5; assay: Inhibition of human Kv1.5 channel expressed in mouse L929 cells at >1 uM; assay type: cell-based
[3] = Volume of distribution at steady state in rat at 10 umol/kg, intra-arterial for 10 mins; assay type: ADME, organism-based; settings: in vivo, read-out: Vdss
hERG (KCNH2) = hERG (KCNH2) (Homo sapiens, UniProt Q12809); assay: Inhibition of human ERG at 10 uM
[4] = Plasma clearance in rat at 10 umol/kg, intra-arterial for 10 mins; assay type: ADME, organism-based
[5] = Oral bioavailability in rat at 20 umol/kg; assay type: ADME, organism-based; settings: in vivo
[6] = Inhibition of sodium channel at 10 uM
Homo sapiens = species on record: Homo sapiens; assay: Selectivity for human Kv1.5 channel over human ERG
[7] = Selectivity for human Kv1.5 channel over sodium channel
[8] = Terminal half life in rat at 10 umol/kg, intra-arterial for 10 mins; assay type: ADME, organism-based; settings: in vivo, read-out: beta t1/2 (converted)
[9] = Selectivity for human Kv1.5 channel over calcium channel
Oryctolagus cuniculus [10] = assay: Prolongation of effective refractory period in rabbit ventricle at 0.3 to 10 mg/kg; assay type: functional, organism-based
Oryctolagus cuniculus [11] = assay: Prolongation of effective refractory period in rabbit atrium at 3 mg/kg; assay type: functional, Cardiac atrium
[12] = Inhibition of calcium channel at 10 uM

T1 sequence (P22460 whole entry): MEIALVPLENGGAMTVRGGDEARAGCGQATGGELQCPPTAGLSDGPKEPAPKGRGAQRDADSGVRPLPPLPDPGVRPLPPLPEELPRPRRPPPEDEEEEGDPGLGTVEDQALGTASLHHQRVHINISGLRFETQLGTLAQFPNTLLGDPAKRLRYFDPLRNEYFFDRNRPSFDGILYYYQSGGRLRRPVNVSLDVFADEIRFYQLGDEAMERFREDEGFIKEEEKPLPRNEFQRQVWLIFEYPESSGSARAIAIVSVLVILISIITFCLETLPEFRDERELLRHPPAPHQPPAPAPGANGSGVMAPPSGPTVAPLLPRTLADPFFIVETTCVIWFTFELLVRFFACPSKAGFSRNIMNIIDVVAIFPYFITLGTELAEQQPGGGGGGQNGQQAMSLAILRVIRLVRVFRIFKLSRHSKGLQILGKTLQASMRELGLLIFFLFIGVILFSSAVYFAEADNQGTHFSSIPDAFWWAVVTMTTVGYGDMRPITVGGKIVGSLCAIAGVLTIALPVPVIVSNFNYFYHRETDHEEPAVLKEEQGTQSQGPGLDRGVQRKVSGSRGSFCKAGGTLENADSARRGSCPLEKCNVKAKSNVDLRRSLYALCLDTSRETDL
Chain of hERG (KCNH2) (Q12809 whole entry): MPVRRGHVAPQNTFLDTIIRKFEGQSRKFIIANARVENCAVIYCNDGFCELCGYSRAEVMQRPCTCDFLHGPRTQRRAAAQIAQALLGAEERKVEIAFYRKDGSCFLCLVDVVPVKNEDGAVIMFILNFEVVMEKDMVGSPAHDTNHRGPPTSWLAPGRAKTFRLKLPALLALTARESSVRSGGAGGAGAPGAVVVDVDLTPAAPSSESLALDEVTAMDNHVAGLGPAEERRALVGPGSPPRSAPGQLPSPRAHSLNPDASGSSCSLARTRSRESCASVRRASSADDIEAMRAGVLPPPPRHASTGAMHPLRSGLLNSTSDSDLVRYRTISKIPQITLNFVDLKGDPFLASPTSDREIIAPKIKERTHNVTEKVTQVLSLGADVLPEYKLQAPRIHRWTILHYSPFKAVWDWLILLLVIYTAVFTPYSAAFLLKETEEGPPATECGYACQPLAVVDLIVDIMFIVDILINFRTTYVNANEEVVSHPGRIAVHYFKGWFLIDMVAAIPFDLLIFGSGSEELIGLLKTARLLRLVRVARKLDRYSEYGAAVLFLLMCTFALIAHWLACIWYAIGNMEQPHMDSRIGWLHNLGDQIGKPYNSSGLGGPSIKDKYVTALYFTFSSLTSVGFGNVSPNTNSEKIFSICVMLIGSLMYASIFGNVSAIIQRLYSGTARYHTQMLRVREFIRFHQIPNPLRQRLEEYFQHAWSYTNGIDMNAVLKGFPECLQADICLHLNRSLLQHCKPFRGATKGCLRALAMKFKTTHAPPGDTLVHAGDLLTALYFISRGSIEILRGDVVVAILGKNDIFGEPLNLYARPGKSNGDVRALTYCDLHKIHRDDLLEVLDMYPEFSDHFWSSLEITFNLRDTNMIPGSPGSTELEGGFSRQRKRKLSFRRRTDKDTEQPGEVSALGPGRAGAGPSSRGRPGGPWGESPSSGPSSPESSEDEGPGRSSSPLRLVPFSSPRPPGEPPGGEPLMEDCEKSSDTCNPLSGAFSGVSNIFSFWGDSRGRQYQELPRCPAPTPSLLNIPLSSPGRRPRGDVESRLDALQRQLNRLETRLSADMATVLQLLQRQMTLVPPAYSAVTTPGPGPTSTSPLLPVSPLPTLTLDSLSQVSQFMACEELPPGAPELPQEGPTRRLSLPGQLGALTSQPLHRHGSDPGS

IC50 [1]: 57 nM
Compound: CCn1c(C2=C(C)Nc3ccnn3C2c2ccc(Cl)c(Cl)c2)nc2cc(Cl)ccc21 (stereo not drawn)

inhibition [2]: 25%
IC50 [1]: > 1000 nM
Compound: CC1=C(c2ncc(-c3ccccc3)o2)C(c2ccc(Cl)c(Cl)c2)n2nccc2N1 (stereo not drawn)

inhibition [2]: 8%
IC50 [1]: > 1000 nM
Compound: CC(=O)Nc1ccc2c(c1)nc(C1=C(C)Nc3ccnn3C1c1ccc(Cl)c(Cl)c1)n2C (stereo not drawn)

IC50 [1]: 71 nM
Compound: CC1=C(c2nc3cccc(Cl)c3n2C)C(c2ccc(Cl)c(Cl)c2)n2nccc2N1 (stereo not drawn)

IC50 [1]: 75 nM
Compound: CC1=C(c2nc3ccccc3n2C)C(c2ccc(Cl)c(Cl)c2)n2nccc2N1 (stereo not drawn)

IC50 [1]: 110 nM
Compound: CC1=C(c2nc3cccc(C)c3n2C)C(c2ccc(Cl)c(Cl)c2)n2nccc2N1 (stereo not drawn)

Vd [3]: 1.6 L/kg
clearance [4]: 35 mL/min/kg
bioavailability [5]: 51%
inhibition [6]: 37%
Selectivity ratio (Homo sapiens): > 200
Selectivity ratio [7]: > 200
half-life [8]: 0.57 h
Selectivity ratio [9]: > 200
IC50 [1]: 15 nM
Compound: CC1=C(c2nc3cc(F)ccc3n2C)C(c2ccc(Cl)c(Cl)c2)n2nccc2N1 (stereo not drawn)
inhibition at 10 µM (hERG (KCNH2)): 83%

inhibition [2]: 30%
IC50 [1]: > 1000 nM
Compound: CC1=C(c2nc3cc(S(=O)(=O)Nc4ccccc4)ccc3n2C)C(c2ccc(Cl)c(Cl)c2)n2nccc2N1 (stereo not drawn)

IC50 [1]: 94 nM
Compound: CC1=C(c2nc3cc(Cl)ccc3n2C(C)C)C(c2ccc(Cl)c(Cl)c2)n2nccc2N1 (stereo not drawn)

IC50 [1]: 510 nM
Compound: CC1=C(c2nc3ccccc3[nH]2)C(c2ccc(Cl)c(Cl)c2)n2nccc2N1 (stereo not drawn)

IC50 [1]: 740 nM
Compound: CC1=C(c2nc3ccccc3s2)C(c2ccc(Cl)c(Cl)c2)n2nccc2N1 (stereo not drawn)

IC50 [1]: 150 nM
Compound: CC1=C(c2nc3cccc(F)c3n2C)C(c2ccc(Cl)c(Cl)c2)n2nccc2N1 (stereo not drawn)

Vd [3]: 2.1 L/kg
clearance [4]: 42 mL/min/kg
bioavailability [5]: 37%
inhibition [6]: 27%
Selectivity ratio (Homo sapiens): > 200
Selectivity ratio [7]: > 200
half-life [8]: 1.5 h
Selectivity ratio [9]: > 200
IC50 [1]: 30 nM
inhibition [12]: 13%
Compound: COCC1=C(c2nc3cc(F)ccc3n2C)C(c2ccc(Cl)c(Cl)c2)n2nccc2N1 (stereo not drawn)
Activity (Oryctolagus cuniculus [10]): inactive
inhibition at 10 µM (hERG (KCNH2)): 47%
Activity (Oryctolagus cuniculus [11]): >20%

IC50 [1]: 150 nM
Compound: CC1=C(c2nc3cccc(C)c3[nH]2)C(c2ccc(Cl)c(Cl)c2)n2nccc2N1 (stereo not drawn)

IC50 [1]: 220 nM
Compound: CC1=C(c2nc3cc(C#N)ccc3n2C)C(c2ccc(Cl)c(Cl)c2)n2nccc2N1 (stereo not drawn)

IC50 [1]: 64 nM
Compound: CC1=C(c2nc3c(F)cccc3n2C)C(c2ccc(Cl)c(Cl)c2)n2nccc2N1 (stereo not drawn)

IC50 [1]: 540 nM
Compound: CC1=C(c2nc3cc(C(F)(F)F)ccc3n2C)C(c2ccc(Cl)c(Cl)c2)n2nccc2N1 (stereo not drawn)

inhibition [2]: 29%
IC50 [1]: > 1000 nM
Compound: CC1=C(c2nc3cc(S(C)(=O)=O)ccc3n2C)C(c2ccc(Cl)c(Cl)c2)n2nccc2N1 (stereo not drawn)

IC50 [1]: 660 nM
Compound: CC1=C(c2nc3ccc(Cl)cc3n2C)C(c2ccc(Cl)c(Cl)c2)n2nccc2N1 (stereo not drawn)

IC50 [1]: 200 nM
Compound: COC(=O)c1ccc2c(c1)nc(C1=C(C)Nc3ccnn3C1c1ccc(Cl)c(Cl)c1)n2C (stereo not drawn)

IC50 [1]: 48 nM
Compound: CCCn1c(C2=C(C)Nc3ccnn3C2c2ccc(Cl)c(Cl)c2)nc2cc(F)ccc21 (stereo not drawn)

IC50 [1]: 200 nM
Compound: CC1=C(c2nc3cc(C)ccc3n2C)C(c2ccc(Cl)c(Cl)c2)n2nccc2N1 (stereo not drawn)

IC50 [1]: 68 nM
Compound: CC1=C(c2nc3cc(Cl)ccc3n2C)C(c2ccc(Cl)c(Cl)c2)n2nccc2N1 (stereo not drawn)

IC50 [1]: 980 nM
Compound: CC1=C(c2nc3ccc(C)cc3n2C)C(c2ccc(Cl)c(Cl)c2)n2nccc2N1 (stereo not drawn)

inhibition [2]: 29%
IC50 [1]: > 1000 nM
Compound: CCCCc1nnc(C2=C(C)Nc3ccnn3C2c2ccc(Cl)c(Cl)c2)o1 (stereo not drawn)

inhibition [2]: 18%
IC50 [1]: > 1000 nM
Compound: CC1=C(c2nnc(-c3ccccc3)o2)C(c2ccc(Cl)c(Cl)c2)n2nccc2N1 (stereo not drawn)
